Consider 18 compounds from patent US10660876B2, “Amino compounds for treatment of medical disorders” (Achillion Pharmaceuticals, Inc., priority 2015, dated 2020).

As usually defined, the IC50 is the concentration that gives 50% inhibition.

Human Factor D, sequence (P00746 26-253): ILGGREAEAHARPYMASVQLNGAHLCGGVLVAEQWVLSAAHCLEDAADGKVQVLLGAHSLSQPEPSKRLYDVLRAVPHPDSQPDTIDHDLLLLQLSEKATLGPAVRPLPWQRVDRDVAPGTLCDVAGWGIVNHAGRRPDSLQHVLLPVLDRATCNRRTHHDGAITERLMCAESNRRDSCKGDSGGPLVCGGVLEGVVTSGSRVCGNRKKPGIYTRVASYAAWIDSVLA

The first test has as its target Human Factor D (Homo sapiens (Human), UniProt P00746). Description: Human Factor D Assay. The settings on record: Table 1; Factor D purified from human serum, 80 nM, substrate Z-L-Lys-SBzl; read-out: IC50. The format is biochemical. On the procedure:
Example 12. Human Factor D Assay
Human Factor D (purified from human serum, Complement Technology, Inc.) at 80 nM final concentration is incubated with test compound at various concentrations for 5 minutes at room temperature in 50 mM Tris, 1M NaCl, pH 7.5. A synthetic substrate Z-L-Lys-SBzl and DTNB (Ellman's reagent) are added to final concentrations of 100 μM each. Absorbance at 405 nm (A405) is recorded at 30 second intervals for 30 minutes using a microplate spectrophotometer. IC50 values are calculated by nonlinear regression of complement Factor D reaction rates as a function of test compound concentration.
As for `CC(=O)c1cn(CC(=O)N2C[C@H](F)C[C@H]2C(=O)NCc2cccnc2)c2ccc(Nc3cncnc3)cc12` [Compound 43, (2S,4R)-1-(2-(3-acetyl-5-(pyrimidin-5-ylamino)-1H-indol-1-yl)acetyl)-4-fluoro-N-(pyridin-3-ylmethyl) pyrrolidine-2-carboxamide], the IC50 is less than 1 µM.
On the same count and under the same terms, then `CC(=O)c1cn(CC(=O)N2C[C@H](F)C[C@H]2C(=O)Nc2cccc3c2NC(=O)C(C)O3)c2ccc(Nc3cncnc3)cc12` (stereo partly drawn) [Compound 71, (2S,4R)-1-(2-(3-acetyl-5-(pyrimidin-5-ylamino)-1H-indol-1-yl)acetyl)-4-fluoro-N-(2-methyl-3-oxo-3,4-dihydro-2H-benzo[b][1,4]oxazin-5-yl)pyrrolidine-2-carboxamide], with 1 to 10 µM; and `CC(=O)c1cn(CC(=O)N2C[C@H](F)C[C@H]2C(=O)Nc2cccc(Br)n2)c2ccc(Nc3cncnc3)cc12` [Compound 4, (2S,4R)-1-(2-(3-acetyl-5-(pyrimidin-5-ylamino)-1H-indol-1-yl)acetyl)-N-(6-bromopyridin-2-yl)-4-fluoropyrrolidine-2-carboxamide], with less than 1 µM; and `CC(=O)c1cn(CC(=O)N2C[C@H](F)C[C@H]2C(=O)Nc2ccc3ncsc3c2)c2ccc(Nc3cncnc3)cc12` [Compound 56, (2S,4R)-1-(2-(3-acetyl-5-(pyrimidin-5-ylamino)-1H-indol-1-yl)acetyl)-N-(benzo[d]thiazol-6-yl)-4-fluoropyrrolidine-2-carboxamide], with less than 1 µM.
Still for that read-out and setting: then `CC(=O)c1cn(CC(=O)N2C[C@H](F)C[C@H]2C(=O)Nc2cccc(Cl)n2)c2ccc(Nc3cncnc3)cc12` [Compound 6, (2S,4R)-1-(2-(3-acetyl-5-(pyrimidin-5-ylamino)-1H-indol-1-yl)acetyl)-N-(6-chloropyridin-2-yl)-4-fluoropyrrolidine-2-carboxamide], with less than 1 µM; and `CC(=O)c1cn(CC(=O)N2C[C@H](F)C[C@H]2C(=O)Nc2cccc(-c3ccccc3Cl)c2F)c2ccc(N(COC(=O)C(C)(C)C)c3cncnc3)cc12` [Compound 15, ((3-acetyl-1-(2-((2S,4R)-2-(2′-chloro-2-fluorobiphenyl-3-ylcarbamoyl)-4-fluoropyrrolidin-1-yl)-2-oxoethyl)-1H-indol-5-yl)(pyrimidin-5-yl)amino)methyl pivalate], with 1 to 10 µM; and `CC(=O)c1cn(CC(=O)N2C[C@H](F)C[C@H]2C(=O)Nc2cc(O)ccn2)c2ccc(Nc3cncnc3)cc12` [Compound 72, (2S,4R)-1-(2-(3-acetyl-5-(pyrimidin-5-ylamino)-1H-indol-1-yl)acetyl)-4-fluoro-N-(4-hydroxypyridin-2-yl)pyrrolidine-2-carboxamide], with less than 1 µM.
On the same count and under the same terms, the figure for `CC(=O)c1cn(CC(=O)N2C[C@H](F)C[C@H]2C(=O)Nc2ccc(F)c(-c3nnc4n3CCCCC4)c2)c2ccc(Nc3cncnc3)cc12` [Compound 26, (2S,4R)-1-(2-(3-acetyl-5-(pyrimidin-5-ylamino)-1H-indol-1-yl)acetyl)-4-fluoro-N-(4-fluoro-3-(6,7,8,9-tetrahydro-5H-[1,2,4]triazolo[4,3-a]azepin-3-yl)phenyl) pyrrolidine-2-carboxamide] is less than 1 µM; for `CC(=O)c1cn(CC(=O)N2C[C@H](F)C[C@H]2C(=O)Nc2cc(C)nc3nc(C(F)(F)F)nn23)c2ccc(Nc3cncnc3)cc12` [Compound 41, (2S,4R)-1-(2-(3-acetyl-5-(pyrimidin-5-ylamino)-1H-indol-1-yl)acetyl)-4-fluoro-N-(5-methyl-2-(trifluoromethyl)-[1,2,4]triazolo[1,5-a]pyrimidin-7-yl)pyrrolidine-2-carboxamide] it is more than 10 µM.
Turning to `CC(=O)c1cn(CC(=O)N2C[C@H](F)C[C@H]2C(=O)Nc2noc(-c3ccccc3Cl)n2)c2ccc(Nc3cncnc3)cc12` [Compound 62, (2S,4R)-1-(2-(3-acetyl-5-(pyrimidin-5-ylamino)-1H-indol-1-yl)acetyl)-N-(5-(2-chlorophenyl)-1,2,4-oxadiazol-3-yl)-4-fluoropyrrolidine-2-carboxamide], the IC50 was less than 1 µM.
Same read-out and setting: then `CC(=O)c1cn(CC(=O)N2C[C@H](F)C[C@H]2C(=O)Nc2ccc3[nH]c(C)c(C)c3c2)c2ccc(Nc3cncnc3)cc12` [Compound 38, (2S,4R)-1-(2-(3-acetyl-5-(pyrimidin-5-ylamino)-1H-indol-1-yl)acetyl)-N-(2,3-dimethyl-1H-indol-5-yl)-4-fluoropyrrolidine-2-carboxamide], with less than 1 µM; and `CC(=O)c1cn(CC(=O)N2C[C@H](F)C[C@H]2C(=O)Nc2cc3c(cc2F)OC(F)(F)O3)c2ccc(Nc3cncnc3)cc12` [Compound 35, (2S,4R)-1-(2-(3-acetyl-5-(pyrimidin-5-ylamino)-1H-indol-1-yl)acetyl)-4-fluoro-N-(2,2,6-trifluorobenzo[d] [1,3]dioxol-5-yl)pyrrolidine-2-carboxamide], with less than 1 µM; and `NC(=O)c1nn(CC(=O)N2C[C@H](F)C[C@H]2C(=O)Nc2cccc(-c3ccccc3Cl)c2F)c2ccc(Nc3cncnc3)cc12` [Compound 10, 1-(2-((2S,4R)-2-(2′-chloro-2-fluorobiphenyl-3-ylcarbamoyl)-4-fluoropyrrolidin-1-yl)-2-oxoethyl)-5-(pyrimidin-5-ylamino)-1H-indazole-3-carboxamide], with less than 1 µM.
Consider `CC(=O)c1cn(CC(=O)N2C[C@H](F)C[C@H]2C(=O)Nc2ncc(Br)cn2)c2ccc(Nc3cncnc3)cc12` [Compound 44, (2S,4R)-1-(2-(3-acetyl-5-(pyrimidin-5-ylamino)-1H-indol-1-yl)acetyl)-N-(5-bromopyrimidin-2-yl)-4-fluoropyrrolidine-2-carboxamide], for which the IC50 is less than 1 µM.
Same read-out and setting: the figure for `CC(=O)c1cn(CC(=O)N2C[C@H](F)C[C@H]2C(=O)NC2CCCc3nc(-c4ccc(F)cc4)sc32)c2ccc(Nc3cncnc3)cc12` (stereo partly drawn) [Compound 28, (2S,4R)-1-(2-(3-acetyl-5-(pyrimidin-5-ylamino)-1H-indol-1-yl)acetyl)-4-fluoro-N-(2-(4-fluorophenyl)-4,5,6,7-tetrahydrobenzo[d]thiazol-7-yl)pyrrolidine-2-carboxamide] is more than 10 µM; for `NC(=O)c1nn(CC(=O)N2C[C@H](F)C[C@H]2C(=O)Nc2cccc(Cl)n2)c2ccc(Nc3cccnn3)cc12` [Compound 11, 1-(2-((2S,4R)-2-(6-chloropyridin-2-ylcarbamoyl)-4-fluoropyrrolidin-1-yl)-2-oxoethyl)-5-(pyridazin-3-ylamino)-1H-indazole-3-carboxamide] it is less than 1 µM.

The same test, now with this note: Table 3; Factor D purified from human serum, 80 nM, substrate Z-L-Lys-SBzl; read-out: IC50 (Stars).
In the case of `Cc1cccc(NC(=O)[C@@H]2[C@@H]3CCC(C3)N2C(=O)Cn2cc(C(N)=O)c3cc(Nc4ccc(Cl)nn4)ccc32)n1` [Compound 162, 5-((6-chloropyridazin-3-yl)amino)-1-(2-((3S,4R)-3-((6-methylpyridin-2-yl)carbamoyl)-2-azabicyclo[2.2.1]heptan-2-yl)-2-oxoethyl)-1H-indole-3-carboxamide], the half-maximal inhibitory concentration (IC50) is less than 1 µM.
With `CC(=O)c1cn(CC(=O)N2C[C@H](F)C[C@H]2C(=O)NCCCCc2ccccc2)c2ccc(Nc3cncnc3)cc12` [Compound 156, (2S,4R)-1-(2-(3-acetyl-5-(pyrimidin-5-ylamino)-1H-indol-1-yl)acetyl)-4-fluoro-N-(4-phenylbutyl) pyrrolidine-2-carboxamide], the concentration for half-maximal inhibition (IC50) is less than 1 µM.
